Tested on: 898857-211-R-J1-PDC complex spheroids, growth % test/control
Experiment: Anticancer human tumor 898857-211-R-J1-PDC patient-derived melanoma cell line growth inhibition [RAS]
Details: for IC50: curve of first compound; for viability, T/C: stronger effect = lower value; active = viability on the fitted dose curve at most 10% of control; inactive = the rest
Text: RAS pathway inhibitors in Combinations in Complex Spheroids
A high-throughput screen of multi-cell type tumor spheroids was designed to identify active combinations of RAS pathway inhibitors and targeted small molecules. Complex spheroids include a stromal component modeled by human endothelial cells (HUVEC) and fibroblasts modeled by human mesenchymal stem cells (MSCs). The concentration ranges selected for each drug and investigational agent were based upon clinically achievable concentrations if the clinical Cmax of the agent was known.
Compounds. The drugs and investigational agents: abemaciclib (NSC768073), cobimetinib (NSC768068), divarasib (GDC6063, NSC841802), docetaxel (NSC628503), GDC-1971 (RLY-1971, NSC841576), gemcitabine (NSC613327), inavolisib (NSC800729), ipatasertib (NSC767898), KB-0742 (NSC834161), MRTX-1133 (NSC836407), osimertinib (NSC779217), RMC-4630 (NSC839698), RMC-6236 (NSC851965), RMC-6291 (NSC852671), Ro-3306 (NSC812927), sapanisertib (NSC764658), SN-38 (NSC673596), staurosporine (NSC755774), SY5609 (NSC837396), and tovorafenib (DAY101, NSC766906), were obtained from the National Cancer Institute (NCI) Developmental Therapeutics Program Chemical Repository. The FDA-approved anticancer drug set is available from the NCI Developmental Therapeutics Program. […] The stock solutions were prepared in dimethyl sulfoxide (DMSO, Sigma-Aldrich, St. Louis, MO, cat. D2650) at 800-fold the tested concentration and stored at -70 degrees C prior to their use. All drugs and investigational agents were tested over a range starting from a high concentration at or near the clinical Cmax and decreasing in half-log increments. If the clinical Cmax for an agent had not been determined, the highest concentration tested was 10 microM.
Cell Culture. All cells were maintained in an incubator at 37 degrees C and 5% CO2 with 95% humidity. The PDC lines were cultured according to standard operating procedures established by the NCI PDMR. All PDCs were thawed and cultured in Matrigel-coated flasks prepared with a working solution of 1X Ham's F-12 nutrient mix, without supplementation (Invitrogen, Waltham, MA, cat. 11765054), 100 U/mL penicillin-streptomycin (Invitrogen, cat. 15140122), and 2.5% Matrigel (Corning Inc., Corning, NY, cat. 354248) for the first three passages. The 362531-283-R-J2-PDC and 782815-120-R-J1-PDC lines were cultured in 6C/Colon 1B media, which includes advanced DMEM/F-12 (Thermo Fisher Scientific, cat. 12634028), 10 mM HEPES (Thermo Fisher Scientific, cat. 15630080), 1X GlutaMAX supplement (Thermo Fisher Scientific, cat. 35050061), 0.1 mg/mL primocin (InvivoGen, San Diego, CA, cat. ant-pm-2), 10% defined fetal bovine serum, heat inactivated (HyClone Laboratories Inc., Logan, UT, cat. SH30070.03HI), 50% L-WRN conditioned media (ATCC, cat. CRL-3276), 1.25 mM N-Acetyl-L-cysteine (Sigma-Aldrich, cat. A9165), 10 mM nicotinamide (Sigma-Aldrich, cat. N0636), 1X B-27 supplement (Thermo Fisher Scientific, cat. 17504044), 1X N-2 supplement (Thermo Fisher Scientific, cat. 17502048), 50 ng/mL human EGF (Thermo Fisher Scientific, cat. PHG0311), and 10 microM Y-27632 dihydrochloride (Tocris Bioscience, cat. 1254). The K12877-001-R-J1-PDC line was cultured in 6I media, which includes all 6C/Colon 1B media plus 10 ng/mL human FGF-10 (PeproTech, cat. 100-26), 1 ng/mL human FGF-2 (PeproTech, cat. 100-18B), 1 µM prostaglandin E2 (Tocris Bioscience, cat. 2296), […] hydrocortisone (Sigma-Aldrich, cat. H4001), and […] bovine insulin (Sigma-Aldrich, cat. I6634). The K86415-001-R-J1-PDC line was cultured in 6D media, which includes all 6C/Colon 1B media components minus the L-WRN conditioned media. The 485176-168-R4-J1-PDC was cultured in PANC media, which includes all 6C/Colon 1B media plus 100 ng/mL human FGF-10 (PeproTech, cat. 100-26), 500 nM SB-431542 (Selleckchem, cat. S1067), and 10 nM gastrin (Tocris Bioscience, cat. 3006). […]

[1] = second compound 0.0316 µM, first compound 0.0316 µM
[2] = second compound 0.0316 µM, first compound 0.1 µM
[3] = second compound 0.1 µM, first compound 0.0316 µM
[4] = second compound 0.1 µM, first compound 0.1 µM
[5] = second compound 0.316 µM, first compound 0.0316 µM
[6] = second compound 0.316 µM, first compound 0.1 µM
[7] = second compound 1 µM, first compound 0.0316 µM
[8] = second compound 1 µM, first compound 0.1 µM
[9] = second compound 3.16 µM, first compound 0.0316 µM
[10] = second compound 3.16 µM, first compound 0.1 µM
[11] = second compound 10 µM, first compound 0.0316 µM
[12] = second compound 10 µM, first compound 0.1 µM
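Also: spheroids exposed to compound for seven days before readout.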
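For viability, T/C in this document: 100% = DMSO vehicle control wells.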

CC(C)n1nc(-c2ccc3oc(N)nc3c2)c2c(N)ncnc21 + C#Cc1c(F)ccc2cc(O)cc(-c3ncc4c(N5CC6CCC(C5)N6)nc(OCC56CCCN5CC(F)C6)nc4c3F)c12
38.2 nM: IC50 (second compound 0.1 µM)
37.7 nM: IC50 (second compound 0.316 µM)
inactive: viability, T/C (second compound 0.0316 µM, first compound 0.000316 µM) 108% | viability, T/C (second compound 0.0316 µM, first compound 0.001 µM) 92.3% | viability, T/C (second compound 0.0316 µM, first compound 0.00316 µM) 101% | viability, T/C (second compound 0.0316 µM, first compound 0.01 µM) 81.8% | viability, T/C [1] 50.9% | viability, T/C [2] 24% | viability, T/C (second compound 0.1 µM, first compound 0.000316 µM) 115% | viability, T/C (second compound 0.1 µM, first compound 0.001 µM) 99.8% | viability, T/C (second compound 0.1 µM, first compound 0.00316 µM) 100% | viability, T/C (second compound 0.1 µM, first compound 0.01 µM) 79.5% | viability, T/C [3] 54.4% | viability, T/C [4] 24.5% | viability, T/C (second compound 0.316 µM, first compound 0.000316 µM) 112% | viability, T/C (second compound 0.316 µM, first compound 0.001 µM) 113% | viability, T/C (second compound 0.316 µM, first compound 0.00316 µM) 99.2% | viability, T/C (second compound 0.316 µM, first compound 0.01 µM) 78.9% | viability, T/C [5] 55.6% | viability, T/C [6] 26.6% | viability, T/C (second compound 1 µM, first compound 0.000316 µM) 110% | viability, T/C (second compound 1 µM, first compound 0.001 µM) 103% | viability, T/C (second compound 1 µM, first compound 0.00316 µM) 107% | viability, T/C (second compound 1 µM, first compound 0.01 µM) 81.4% | viability, T/C [7] 55.8% | viability, T/C [8] 23.5% | viability, T/C (second compound 3.16 µM, first compound 0.000316 µM) 122% | viability, T/C (second compound 3.16 µM, first compound 0.001 µM) 114% | viability, T/C (second compound 3.16 µM, first compound 0.00316 µM) 102% | viability, T/C (second compound 3.16 µM, first compound 0.01 µM) 84.4% | viability, T/C [9] 55.8% | viability, T/C [10] 23.8% | viability, T/C (second compound 10 µM, first compound 0.000316 µM) 57.5% | viability, T/C (second compound 10 µM, first compound 0.001 µM) 47.7% | viability, T/C (second compound 10 µM, first compound 0.00316 µM) 46.7% | viability, T/C (second compound 10 µM, first compound 0.01 µM) 29.9% | viability, T/C [11] 24.4% | viability, T/C [12] 10.4%
39.6 nM: IC50 (second compound 3.16 µM)
37.3 nM: IC50 (second compound 1 µM)
32.6 nM: IC50 (second compound 0.0316 µM)
1.06 nM: IC50 (second compound 10 µM)

C[C@@H](NC(=O)c1ncnc(N)c1Cl)c1ncc(C(=O)Nc2cc(C(F)(F)F)c(Cl)cn2)s1 + C#Cc1c(F)ccc2cc(O)cc(-c3ncc4c(N5CC6CCC(C5)N6)nc(OCC56CCCN5CC(F)C6)nc4c3F)c12
inactive: viability, T/C [1] 140% | viability, T/C [2] 112% | viability, T/C (second compound 0.0316 µM, first compound 0.316 µM) 104% | viability, T/C (second compound 0.0316 µM, first compound 1 µM) 88.3% | viability, T/C (second compound 0.0316 µM, first compound 3.16 µM) 63% | viability, T/C (second compound 0.0316 µM, first compound 10 µM) 41.3% | viability, T/C [3] 124% | viability, T/C [4] 126% | viability, T/C (second compound 0.1 µM, first compound 0.316 µM) 99.4% | viability, T/C (second compound 0.1 µM, first compound 1 µM) 88.3% | viability, T/C (second compound 0.1 µM, first compound 3.16 µM) 65.8% | viability, T/C (second compound 0.1 µM, first compound 10 µM) 37.7% | viability, T/C [5] 121% | viability, T/C [6] 125% | viability, T/C (second compound 0.316 µM, first compound 0.316 µM) 113% | viability, T/C (second compound 0.316 µM, first compound 1 µM) 89.3% | viability, T/C (second compound 0.316 µM, first compound 3.16 µM) 66.3% | viability, T/C (second compound 0.316 µM, first compound 10 µM) 42% | viability, T/C [7] 126% | viability, T/C [8] 122% | viability, T/C (second compound 1 µM, first compound 0.316 µM) 115% | viability, T/C (second compound 1 µM, first compound 1 µM) 97.3% | viability, T/C (second compound 1 µM, first compound 3.16 µM) 63.4% | viability, T/C (second compound 1 µM, first compound 10 µM) 42% | viability, T/C [9] 127% | viability, T/C [10] 126% | viability, T/C (second compound 3.16 µM, first compound 0.316 µM) 108% | viability, T/C (second compound 3.16 µM, first compound 1 µM) 86.5% | viability, T/C (second compound 3.16 µM, first compound 3.16 µM) 64.1% | viability, T/C (second compound 3.16 µM, first compound 10 µM) 31.5% | viability, T/C [11] 77.3% | viability, T/C [12] 70.7% | viability, T/C (second compound 10 µM, first compound 0.316 µM) 47.3% | viability, T/C (second compound 10 µM, first compound 1 µM) 38.5% | viability, T/C (second compound 10 µM, first compound 3.16 µM) 27.4% | viability, T/C (second compound 10 µM, first compound 10 µM) 19%
6760 nM: IC50 (second compound 0.316 µM)
6700 nM: IC50 (second compound 0.0316 µM)
5020 nM: IC50 (second compound 3.16 µM)
6540 nM: IC50 (second compound 1 µM)
358 nM: IC50 (second compound 10 µM)
5980 nM: IC50 (second compound 0.1 µM)

— PubChem BioAssay AID2060882 (Molecular Pharmacology Branch, DTP, NCI, 2025)
